Test results taken from US20100267697A1, “ION CHANNEL MODULATORS” (Wyeth, priority 2006, published 2010).
Where a name gives a salt, the structure may show the parent alone. Read-outs that look alike come from different tables or passages of the source.

Assays:
Type in all cases: cell-based
[1] = target: Cav2.2 (UniProt Q02294); assay: Oocyte assay (Xenopus oocyte heterologous expression, current at fifth pulse P5); details: Xenopus oocytes; fifth pulse (P5) of 5 Hz train, holding potential −100 mV
Experimental: The assay was performed on various calcium channels (e.g., Cav2.2 subfamily) whereby the modulation of the calcium channel was measured for each tested compound.

[2] = target: T1, Cav2.2 (Homo sapiens, UniProt Q00975); assay: HEK assay (whole-cell patch clamp, transiently transfected HEK-293T/17 cells, pulses P1 and P5); details: holding potential −100 mV
T1 construct: expressed in transfected cells; host or cells: HEK-293T/17 (transient, FuGENE 6)
T1 sequence (Q00975 whole entry): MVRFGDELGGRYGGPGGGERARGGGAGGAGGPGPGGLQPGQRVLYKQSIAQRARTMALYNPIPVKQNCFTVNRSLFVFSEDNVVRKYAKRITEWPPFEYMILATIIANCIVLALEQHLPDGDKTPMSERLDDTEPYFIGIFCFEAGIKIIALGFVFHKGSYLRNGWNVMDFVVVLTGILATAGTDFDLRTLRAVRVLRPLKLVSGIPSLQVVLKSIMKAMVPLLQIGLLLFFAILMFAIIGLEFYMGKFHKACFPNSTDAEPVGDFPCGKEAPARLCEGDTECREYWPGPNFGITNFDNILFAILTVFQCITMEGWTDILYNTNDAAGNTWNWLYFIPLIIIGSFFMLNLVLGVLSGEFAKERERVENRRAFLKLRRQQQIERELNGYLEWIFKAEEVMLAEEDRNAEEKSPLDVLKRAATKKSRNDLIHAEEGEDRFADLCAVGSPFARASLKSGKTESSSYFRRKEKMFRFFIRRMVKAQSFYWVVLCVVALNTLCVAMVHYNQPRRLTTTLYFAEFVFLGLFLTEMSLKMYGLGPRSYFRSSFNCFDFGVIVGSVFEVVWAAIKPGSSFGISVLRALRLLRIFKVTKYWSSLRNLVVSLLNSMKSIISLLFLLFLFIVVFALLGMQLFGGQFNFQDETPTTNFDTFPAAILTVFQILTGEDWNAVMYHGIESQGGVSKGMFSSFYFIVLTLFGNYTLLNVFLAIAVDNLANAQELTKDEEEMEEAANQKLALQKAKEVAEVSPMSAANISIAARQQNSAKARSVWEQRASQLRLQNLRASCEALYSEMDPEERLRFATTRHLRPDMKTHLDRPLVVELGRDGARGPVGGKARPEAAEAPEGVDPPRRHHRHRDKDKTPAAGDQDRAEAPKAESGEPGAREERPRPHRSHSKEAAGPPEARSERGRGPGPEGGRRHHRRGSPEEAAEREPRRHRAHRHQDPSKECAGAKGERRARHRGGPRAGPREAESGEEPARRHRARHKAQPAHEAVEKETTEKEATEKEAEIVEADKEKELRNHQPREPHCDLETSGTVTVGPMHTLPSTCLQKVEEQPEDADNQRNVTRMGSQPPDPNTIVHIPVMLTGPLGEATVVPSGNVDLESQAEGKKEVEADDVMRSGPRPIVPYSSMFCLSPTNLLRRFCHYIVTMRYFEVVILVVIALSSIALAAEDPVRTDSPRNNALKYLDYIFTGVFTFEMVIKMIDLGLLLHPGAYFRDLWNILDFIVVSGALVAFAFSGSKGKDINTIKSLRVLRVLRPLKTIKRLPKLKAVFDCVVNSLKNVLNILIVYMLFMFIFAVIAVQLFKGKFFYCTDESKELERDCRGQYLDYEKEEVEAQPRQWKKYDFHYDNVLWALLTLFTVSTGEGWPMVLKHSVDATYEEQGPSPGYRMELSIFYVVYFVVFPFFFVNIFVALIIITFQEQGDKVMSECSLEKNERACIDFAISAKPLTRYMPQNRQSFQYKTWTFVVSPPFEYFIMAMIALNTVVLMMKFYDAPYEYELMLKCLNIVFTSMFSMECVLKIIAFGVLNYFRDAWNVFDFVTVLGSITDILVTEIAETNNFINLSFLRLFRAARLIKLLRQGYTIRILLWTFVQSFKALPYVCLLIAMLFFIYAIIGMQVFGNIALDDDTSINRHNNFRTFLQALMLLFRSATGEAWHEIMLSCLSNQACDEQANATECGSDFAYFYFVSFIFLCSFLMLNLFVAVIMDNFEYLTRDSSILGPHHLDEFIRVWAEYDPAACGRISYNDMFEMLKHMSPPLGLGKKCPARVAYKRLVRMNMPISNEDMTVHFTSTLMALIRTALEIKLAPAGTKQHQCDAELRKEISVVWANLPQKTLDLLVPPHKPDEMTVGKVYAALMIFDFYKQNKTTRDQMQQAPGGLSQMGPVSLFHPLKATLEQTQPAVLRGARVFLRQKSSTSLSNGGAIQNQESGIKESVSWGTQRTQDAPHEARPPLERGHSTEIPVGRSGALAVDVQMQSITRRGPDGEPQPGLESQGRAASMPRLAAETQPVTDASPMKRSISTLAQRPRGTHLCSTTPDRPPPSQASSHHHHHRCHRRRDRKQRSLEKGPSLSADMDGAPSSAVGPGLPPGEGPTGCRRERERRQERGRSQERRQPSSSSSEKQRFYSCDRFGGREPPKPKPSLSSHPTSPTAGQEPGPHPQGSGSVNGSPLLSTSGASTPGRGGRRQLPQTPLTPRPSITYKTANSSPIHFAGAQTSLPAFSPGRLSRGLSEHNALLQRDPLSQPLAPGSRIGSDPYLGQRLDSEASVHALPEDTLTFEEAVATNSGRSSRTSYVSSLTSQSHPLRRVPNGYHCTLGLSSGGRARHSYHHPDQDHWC
T1 sequence (P54284 whole entry partner): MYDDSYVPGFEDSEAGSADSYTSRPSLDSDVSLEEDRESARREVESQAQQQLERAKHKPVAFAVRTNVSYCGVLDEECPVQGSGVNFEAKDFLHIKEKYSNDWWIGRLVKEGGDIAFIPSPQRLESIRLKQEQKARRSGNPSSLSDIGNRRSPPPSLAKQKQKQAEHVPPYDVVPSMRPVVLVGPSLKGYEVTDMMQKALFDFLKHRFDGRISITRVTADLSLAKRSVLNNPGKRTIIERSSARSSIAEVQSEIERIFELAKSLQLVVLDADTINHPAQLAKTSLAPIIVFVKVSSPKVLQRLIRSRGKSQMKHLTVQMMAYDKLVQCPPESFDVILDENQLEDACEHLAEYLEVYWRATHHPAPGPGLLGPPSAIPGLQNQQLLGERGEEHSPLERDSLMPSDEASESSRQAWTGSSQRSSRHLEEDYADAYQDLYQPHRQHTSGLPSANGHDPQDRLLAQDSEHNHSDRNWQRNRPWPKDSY
T1 sequence (P54289 25-946 partner limits assumed): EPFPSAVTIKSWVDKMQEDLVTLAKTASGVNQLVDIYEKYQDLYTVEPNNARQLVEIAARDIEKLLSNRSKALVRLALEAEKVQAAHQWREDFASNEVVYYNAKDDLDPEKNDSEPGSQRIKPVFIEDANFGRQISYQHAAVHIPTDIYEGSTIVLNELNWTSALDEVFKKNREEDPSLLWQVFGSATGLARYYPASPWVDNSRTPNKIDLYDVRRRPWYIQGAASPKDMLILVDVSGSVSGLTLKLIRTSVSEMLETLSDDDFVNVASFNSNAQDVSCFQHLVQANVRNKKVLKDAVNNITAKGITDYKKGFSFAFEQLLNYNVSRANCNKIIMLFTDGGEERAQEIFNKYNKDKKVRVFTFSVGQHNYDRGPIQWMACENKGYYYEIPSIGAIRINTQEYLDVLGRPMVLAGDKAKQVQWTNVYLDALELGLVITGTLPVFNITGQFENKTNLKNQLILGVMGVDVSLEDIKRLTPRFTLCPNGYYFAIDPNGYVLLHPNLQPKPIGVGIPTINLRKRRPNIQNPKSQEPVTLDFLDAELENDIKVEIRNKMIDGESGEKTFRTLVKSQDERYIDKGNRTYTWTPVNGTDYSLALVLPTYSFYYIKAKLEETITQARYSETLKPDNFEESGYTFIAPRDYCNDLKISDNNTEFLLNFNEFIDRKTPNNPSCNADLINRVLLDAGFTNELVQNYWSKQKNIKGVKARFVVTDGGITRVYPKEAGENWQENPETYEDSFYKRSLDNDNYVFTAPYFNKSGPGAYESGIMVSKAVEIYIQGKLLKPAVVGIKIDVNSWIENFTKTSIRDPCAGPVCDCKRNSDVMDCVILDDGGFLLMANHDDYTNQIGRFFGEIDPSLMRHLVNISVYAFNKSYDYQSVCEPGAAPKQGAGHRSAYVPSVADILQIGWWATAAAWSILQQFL
T1 sequence (P54289 947-1103 partner limits assumed): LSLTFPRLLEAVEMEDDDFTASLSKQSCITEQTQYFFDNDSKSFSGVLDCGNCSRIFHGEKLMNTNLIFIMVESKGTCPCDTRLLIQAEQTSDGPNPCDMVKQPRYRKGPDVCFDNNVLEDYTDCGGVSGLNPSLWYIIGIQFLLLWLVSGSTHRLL
Outline: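 Whole-cell voltage clamp of HEK-293T/17 cells transiently transfected via FuGENE 6, then grown 24 h in 1% serum before recording. From −100 mV holding, trains of five 20–30 ms steps to about +10 mV at 5 Hz, repeated every 30 s; steady-state IC50s taken at first (P1) and fifth (P5) pulses to gauge use-dependent block.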

[3] = target: T2, human Cav2.2 (composed of the subunits α1, β3 and α2δ) (Homo sapiens, UniProt Q00975); assay: FLIPR assay (TSA201 cells stably transfected with human Cav2.2 and human Kir2.3, FLUO-4 Ca2+ signal, KCl depolarization); details: 70 mM KCl depolarization, average value
T2 construct: expressed in transfected cells
T2 sequence (Q00975 whole entry): as the sequence (Q00975 whole entry) above
T2 sequence (P54284 whole entry partner): as the sequence (P54284 whole entry partner) above
T2 sequence (P54289 25-946 partner limits assumed): as the sequence (P54289 25-946 partner limits assumed) above
T2 sequence (P54289 947-1103 partner limits assumed): as the sequence (P54289 947-1103 partner limits assumed) above
Outline: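 TSA201 cells co-expressing Cav2.2 (α1, β3, α2δ) and Kir2.3 were loaded with FLUO-4 for 1 h at room temperature. Compound in HBSS with 1% DMSO was preincubated 15 min, then cells were depolarized with 70 mM final KCl (with CaCl2 and HEPES) and the Ca2+ fluorescence was read on FLIPR.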

[4] = fifth pulse (P5) of 5 Hz train, read-out: HEK Cav2.2 P5 IC50
[5] = first pulse (P1) of 5 Hz train, read-out: HEK Cav2.2 P1 IC50

SMILES: CC(C)(C)C(=O)N(Cc1csc(N2CCCCC2)n1)c1ccc(F)cc1 [Compound 2, N-(4-fluorophenyl)-2,2-dimethyl-N-(2-piperidin-1-yl-thiazol-4-ylmethyl)-propionamide hydrochloride]
- IC50 [1]: 16.9 µM
- IC50 [2, 4]: 2 µM
- IC50 [2, 5]: 16.8 µM

SMILES: CCN(CC)c1ccc(CN(C(=O)C(C)(C)C)c2ccc(F)cc2)cn1 [Compound 3, N-(6-diethylamino-pyridin-3-ylmethyl)-N-(4-fluorophenyl)-2,2-dimethyl-propionamide trifluoroacetate]
- IC50 [1]: 12.1 µM
- IC50 [2, 4]: 1.3 µM
- IC50 [2, 5]: 4.3 µM

SMILES: CCN(c1ccc(CN(C(=O)C(C)(C)C)c2ccc(F)cc2)cn1)C1CC1 [Compound 7, N-(6-(Cyclopropyl(ethyl)amino)-pyridin-3-ylmethyl)-N-(4-fluorophenyl)-2,2-dimethyl-propionamide]
- IC50 [1]: 8 µM
- IC50 [2, 4]: 1.7 µM
- IC50 [2, 5]: 12.9 µM

SMILES: CC(C)(C)C(=O)N(Cc1cnc(N2CCCCC2)nc1)c1ccc(F)cc1 [Compound 8, N-(4-fluorophenyl)-2,2-dimethyl-N-(2-piperidin-1-yl-pyrimidin-5-ylmethyl)-propionamide hydrochloride]
- IC50 [1]: 8.7 µM
- IC50 [2, 4]: 1.6 µM
- IC50 [2, 5]: 5.1 µM

SMILES: CN1CCN(c2ccc(CN(C(=O)NC(C)(C)C)c3ccc(F)cc3)cn2)CC1 [Compound 11, 3-tert-butyl-1-(4-fluorophenyl)-1-(6-(4-methyl-piperazin-1-yl)-pyridin-3-ylmethyl)-urea hydrochloride]
- IC50 [1]: 44 µM

SMILES: CN1CCN(c2ccc(CN(C(=O)C3CCCO3)c3ccc(F)cc3)cn2)CC1 (stereo not shown) [Compound 16, TETRAHYDRO-FURAN-2-CARBOXYLIC ACID (4-FLUOROPHENYL)-(6-(4-METHYL-PIPERAZIN-1-YL)-PYRIDIN-3-YLMETHYL)-AMIDE TRIFLUOROACETATE]
- IC50 [1]: 86 µM

SMILES: CN1CCN(c2ccc(CN(C(=O)C(C)(C)C)c3ccc(F)cc3)cn2)CC1 [Compound 17, N-(4-Fluorophenyl)-N-[6-(4-methyl-piperazin-1-yl)-pyridin-3-ylmethyl)-2,2-dimethyl-propionamide]
- IC50 [1]: 41.9 µM

SMILES: CN1CCN(c2ccc(CN(C(=O)C3CC3)c3ccc(F)cc3)cn2)CC1 [Compound 103, Cyclopropanecarboxylic acid (4-fluorophenyl)-[6-(4-methyl-piperaizn-1-yl)-pyridin-3-ylmethyl]-amide]
- IC50 [1]: 129 µM

SMILES: CCN(CC)c1ccc(CN(C(=O)C2CCOC2)c2ccc(F)cc2)cn1 (stereo not shown) [Compound 112, Tetrahydro-furan-3-carboxylic acid (6-diethylamino-pyridin-3-ylmethyl)-(4-fluorophenyl)-amide]
- IC50 [1]: 37 µM

SMILES: CCN(CC)c1ccc(CN(C(=O)C2CCOCC2)c2ccc(F)cc2)cn1 [Compound 113, Tetrahydro-pyran-4-carboxylic acid (6-diethylamino-pyridin-3-ylmethyl)-(4-fluorophenyl)-amide]
- IC50 [1]: 30 µM

SMILES: CC(C)(C)C(=O)N(Cc1csc(-c2ccc(O)cc2)n1)c1ccc(F)cc1 [Compound 244, N-(4-fluorophenyl)-N-{[2-(4-hydroxyphenyl)-1,3-thiazol-4-yl]methyl}-2,2-dimethylpropanamide]
- IC50 [3]: 7.3 µM

SMILES: CC(C)(C)C(=O)N(Cc1csc(-c2cccc(O)c2)n1)c1ccc(F)cc1 [Compound 245, N-(4-fluorophenyl)-N-{[2-(3-hydroxyphenyl)-1,3-thiazol-4-yl]methyl}-2,2-dimethylpropanamide]
- IC50 [3]: 5.4 µM

SMILES: CC(C)(C)C(=O)N(Cc1csc(-c2ccccc2O)n1)c1ccc(F)cc1 [Compound 246, N-(4-fluorophenyl)-N-{[2-(2-hydroxyphenyl)-1,3-thiazol-4-yl]methyl}-2,2-dimethylpropanamide]
- IC50 [3]: 7.2 µM

SMILES: CC(C)(C)C(=O)N(Cc1csc(-c2ccc(F)cc2)n1)c1ccc(F)cc1 [Compound 247, N-(4-fluorophenyl)-N-{[2-(4-fluorophenyl)-1,3-thiazol-4-yl]methyl}-2,2-dimethylpropanamide]
- IC50 [3]: 5 µM

SMILES: CC(C)(C)C(=O)N(Cc1csc(-c2cccc(F)c2)n1)c1ccc(F)cc1 [Compound 248, N-(4-fluorophenyl)-N-{[2-(3-fluorophenyl)-1,3-thiazol-4-yl]methyl}-2,2-dimethylpropanamide]
- IC50 [3]: 5.3 µM

SMILES: CC(C)(C)C(=O)N(Cc1csc(-c2ccccc2F)n1)c1ccc(F)cc1 [Compound 249, N-(4-fluorophenyl)-N-{[2-(2-fluorophenyl)-1,3-thiazol-4-yl]methyl}-2,2-dimethylpropanamide]
- IC50 [3]: 7.9 µM

SMILES: CN1CCN(c2ccc(CN(C(=O)C3CCCO3)c3ccc(F)cc3)cn2)CC1 (stereo not shown) [Compound 250, N-(4-fluorophenyl)-N-{[6-(4-methylpiperazin-1-yl)pyridin-3-yl]methyl}tetrahydrofuran-2-carboxamide]
- IC50 [3]: 34.4 µM

SMILES: O=C(C1CCCO1)N(Cc1ccc(Cl)nc1)c1ccc(F)cc1 (stereo not shown) [Compound 252, N-[(6-chloropyridin-3-yl)methyl]-N-(4-fluuorophenyl)tetrahydrofuran-2-carboxamide]
- IC50 [3]: 13.4 µM

SMILES: CC(C)(C)OC(=O)N1CC[C@H](C(=O)N(Cc2ccc(Cl)nc2)c2ccc(F)cc2)C1 [Compound 254, TERT-BUTYL (3S)-3-{[(6-CHLOROPYRIDIN-3-YL)METHYL](4-FLUOROPHENYL)CARBAMOYL}PYRROLIDINE-1-CARBOXYLATE]
- IC50 [3]: 2.9 µM

SMILES: CC(C)(C)OC(=O)N1CC[C@@H](C(=O)N(Cc2ccc(Cl)nc2)c2ccc(F)cc2)C1 [Compound 255, tert-butyl (3R)-3-{[(6-chloropyridin-3-yl)methyl](4-fluorophenyl)carbamoyl}pyrrolidine-1-carboxylate]
- IC50 [3]: 2.8 µM

SMILES: CN1CCN(c2ccc(CN(C(=O)[C@H]3CCN(C(=O)OC(C)(C)C)C3)c3ccc(F)cc3)cn2)CC1 [Compound 256, tert-butyl (3S)-3-[(4-fluorophenyl){[6-(4-methylpiperazin-1-yl)pyridin-3-yl]methyl}carbamoyl]pyrrolidine-1-carboxylate]
- IC50 [3]: 12.6 µM

SMILES: CN1CCN(c2ccc(CN(C(=O)[C@@H]3CCN(C(=O)OC(C)(C)C)C3)c3ccc(F)cc3)cn2)CC1 [Compound 257, tert-butyl (3R)-3-[(4-fluorophenyl){[6-(4-methylpiperazin-1-yl)pyridin-3-yl]methyl}carbamoyl]pyrrolidine-1-carboxylate]
- IC50 [3]: 22.9 µM

SMILES: CN1CCN(c2ccc(CN(C(=O)[C@H]3CCNC3)c3ccc(F)cc3)cn2)CC1 [Compound 258, (3S)-N-(4-fluorophenyl)-N-{[6-(4-methylpiperazin-1-yl)pyridin-3-yl]methyl}pyrrolidine-3-carboxamide]
- IC50 [3]: 57.7 µM

SMILES: CN1CCN(c2ccc(CN(C(=O)[C@@H]3CCNC3)c3ccc(F)cc3)cn2)CC1 [Compound 259, (3R)-N-(4-fluorophenyl)-N-{[6-(4-methylpiperazin-1-yl)pyridin-3-yl]methyl}pyrrolidine-3-carboxamide]
- IC50 [3]: 59.5 µM

SMILES: CN1CCN(c2ccc(CN(C(=O)[C@H]3CCN(C(=O)C(C)(C)C)C3)c3ccc(F)cc3)cn2)CC1 [Compound 260, (3S)-1-(2,2-dimethylpropanoyl)-N-(4-fluorophenyl)-N-{[6-(4-methylpiperazin-1-yl)pyridin-3-yl]methyl}pyrrolidine-3-carboxamide]
- IC50 [3]: 47.3 µM

SMILES: CN1CCN(c2ccc(CN(C(=O)[C@@H]3CCN(C(=O)C(C)(C)C)C3)c3ccc(F)cc3)cn2)CC1 [Compound 261, (3R)-1-(2,2-dimethylpropanoyl)-N-(4-fluorophenyl)-N-{[6-(4-methylpiperazin-1-yl)pyridin-3-yl]methyl}pyrrolidine-3-carboxamide]
- IC50 [3]: 55.6 µM
